Drawing on ChEMBL document CHEMBL3046337, “Activity landscape analysis, CoMFA and CoMSIA studies of pyrazole CB1 antagonists” (Med Chem Res, 2013), this text covers Ki for 23 molecules.

For this assay, the target named is Cannabinoid receptor 1 (Homo sapiens, UniProt P21554). Briefly: Antagonist activity at CB1 receptor (unknown origin).

Molecules are shown by their SMILES.

Cannabinoid receptor 1, sequence (P21554 whole entry): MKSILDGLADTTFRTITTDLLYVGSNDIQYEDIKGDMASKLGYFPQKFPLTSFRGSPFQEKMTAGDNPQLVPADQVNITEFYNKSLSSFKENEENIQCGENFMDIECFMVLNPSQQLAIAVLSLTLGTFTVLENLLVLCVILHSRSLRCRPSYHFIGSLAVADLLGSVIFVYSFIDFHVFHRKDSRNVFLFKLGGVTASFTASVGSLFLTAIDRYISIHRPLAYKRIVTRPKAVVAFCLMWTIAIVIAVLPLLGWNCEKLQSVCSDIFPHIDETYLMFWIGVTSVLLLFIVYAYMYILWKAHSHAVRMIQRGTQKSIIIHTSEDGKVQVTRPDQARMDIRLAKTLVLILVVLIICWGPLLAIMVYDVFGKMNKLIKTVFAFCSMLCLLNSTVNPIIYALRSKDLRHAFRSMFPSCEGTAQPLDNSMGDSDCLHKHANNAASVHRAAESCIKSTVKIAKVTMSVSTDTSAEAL

In turn, `Cc1c(C(=O)NN2CCCCC2)nn(-c2ccc(Cl)cc2Cl)c1-c1ccc(N)cc1` returned an inhibitory constant (Ki) of 81.5 nM.
The value for `Cc1c(C(=O)NN2CCCCC2)nn(-c2ccc(Cl)cc2Cl)c1-c1ccc(Br)cc1` was 76.7 nM; that for `Cc1c(C(=O)N(C)c2ccccc2)nn(-c2ccc(Cl)cc2Cl)c1-c1ccc(Br)cc1` was 31.1 nM; that for `Cc1c(C(=O)NN2CCCCC2)nn(C2CCCCC2)c1-c1ccccc1` was 605 nM.
Regarding `COCc1c(C(=O)NC2CCCCC2)nn(-c2ccc(Cl)cc2Cl)c1C1C2(C)CCC(C2)C1(C)C` (stereo not drawn), the Ki was 241 nM.
For the molecule `Cc1c(C(=O)NCCO)nn(-c2ccc(Cl)cc2Cl)c1-c1ccc(Br)cc1`, the affinity corresponds to a Ki of 1120 nM.
In turn, `Cc1c(C(=O)NN2CCOCC2)nn(-c2ccc(Cl)cc2Cl)c1-c1ccccc1Br` showed an inhibition constant (Ki) of 11.7 nM.
The value for `CCCCCn1nc(C(=O)NN2CCCCC2)cc1-c1ccccc1` was 256 nM; that for `O=C(NN1CCCCC1)c1nn(-c2ccc(Cl)cc2Cl)c2c1CCCc1cc([N+](=O)[O-])ccc1-2` was 63 nM.
The value for `Cc1c(C(=O)Nc2ccc(-c3ccsc3)cc2)nn(CCCCCCl)c1-c1ccccc1` was 19.8 nM; that for `CCCn1nc(C(=O)NN2CCCCC2)c(C)c1-c1ccccc1` was 3560 nM.
The value for `Cc1c(NC(=O)N2CCCCC2)nn(-c2ccc(Cl)cc2Cl)c1-c1ccc(Br)cc1` was 47 nM; that for `O=C(NC1CCCCC1)c1nn(-c2ccc(Cl)cc2Cl)c(-c2ccc(Br)cc2)c1CO` was 6 nM; that for `CCCCCn1nc(C(=O)NN2CCCCC2)c(C)c1-c1ccc(Br)cc1` was 81.8 nM.
Molecule `CCCCCCCn1nc(C(=O)NN2CCCCC2)cc1-c1ccccc1` yielded an inhibition constant Ki of 327 nM.
The value for `Cc1c(C(=O)NN)nn(-c2ccc(Cl)cc2Cl)c1-c1ccc(Cl)cc1` was 374 nM; that for `Cc1c(C(=O)NCC23CC4CC(CC(C4)C2)C3)nn(CCCCCCl)c1-c1ccccc1` was 6 nM; that for `Cc1c(C(=O)NN2CCCCC2)nn(C)c1-c1ccc(Cl)cc1` was 34700 nM.
The value for `Cc1c(C(=O)NN2CCOCC2)nn(-c2ccc(Cl)cc2Cl)c1-c1ccc(I)cc1` was 13.2 nM.
The value for `CCCCCCCn1nc(C(=O)NN2CCCCC2)c(C)c1-c1ccccc1` was 203 nM.
Regarding `COc1ccc(-c2c(F)c(C(=O)NN3CCCCC3)nn2-c2ccc(Cl)cc2Cl)cc1`, the affinity, expressed as Ki, was 18.2 nM.
As for `Cc1ccc(Cn2nc(C(=O)NC3CC4CCC3(C)C4(C)C)c(C)c2-c2ccc(Cl)c(C)c2)cc1` (stereo not drawn), the Ki was found to be 400 nM.
The value for `O=C(NN1CCCCC1)c1nn(-c2ccc(Cl)cc2Cl)c2c1CCCc1c-2cccc1[N+](=O)[O-]` was 100 nM.
